{"source": "ChEMBL document CHEMBL5625233", "about": "“Exploring positions 6 and 7 of a quinazoline-based scaffold leads to changes in selectivity and potency towards RIPK2/3 kinases” (Eur J Med Chem, 2023)", "key": {"[1]": {"biological_target": "Tyrosine-protein kinase Fyn (Homo sapiens) (UniProt P06241)", "sequence (P06241 2-537 limits assumed)": "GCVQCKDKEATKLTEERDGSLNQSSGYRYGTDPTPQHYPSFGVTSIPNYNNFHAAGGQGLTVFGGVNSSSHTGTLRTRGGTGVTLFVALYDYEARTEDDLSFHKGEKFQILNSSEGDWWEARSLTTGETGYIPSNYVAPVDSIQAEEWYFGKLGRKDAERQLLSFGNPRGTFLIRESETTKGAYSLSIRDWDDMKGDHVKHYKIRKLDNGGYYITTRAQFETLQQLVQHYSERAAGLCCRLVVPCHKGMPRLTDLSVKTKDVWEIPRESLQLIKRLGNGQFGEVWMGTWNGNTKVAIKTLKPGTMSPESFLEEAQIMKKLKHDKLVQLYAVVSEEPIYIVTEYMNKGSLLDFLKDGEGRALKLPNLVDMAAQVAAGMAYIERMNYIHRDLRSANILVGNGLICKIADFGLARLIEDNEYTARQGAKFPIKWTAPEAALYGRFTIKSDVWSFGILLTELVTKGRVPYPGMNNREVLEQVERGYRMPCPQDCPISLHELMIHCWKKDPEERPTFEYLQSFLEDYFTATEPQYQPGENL", "assay": "Inhibition of human FYN relative to control", "conditions": "concentration not given here"}, "[2]": {"biological_target": "Tyrosine-protein kinase ABL1 (Homo sapiens) (UniProt P00519)", "assay": "Inhibition of human ABL relative to control", "conditions": "concentration not given here"}, "[3]": {"biological_target": "T1, Receptor-interacting serine/threonine-protein kinase 2 (Homo sapiens, UniProt O43353)", "T1 sequence (O43353 whole entry, the tested form may be a part)": "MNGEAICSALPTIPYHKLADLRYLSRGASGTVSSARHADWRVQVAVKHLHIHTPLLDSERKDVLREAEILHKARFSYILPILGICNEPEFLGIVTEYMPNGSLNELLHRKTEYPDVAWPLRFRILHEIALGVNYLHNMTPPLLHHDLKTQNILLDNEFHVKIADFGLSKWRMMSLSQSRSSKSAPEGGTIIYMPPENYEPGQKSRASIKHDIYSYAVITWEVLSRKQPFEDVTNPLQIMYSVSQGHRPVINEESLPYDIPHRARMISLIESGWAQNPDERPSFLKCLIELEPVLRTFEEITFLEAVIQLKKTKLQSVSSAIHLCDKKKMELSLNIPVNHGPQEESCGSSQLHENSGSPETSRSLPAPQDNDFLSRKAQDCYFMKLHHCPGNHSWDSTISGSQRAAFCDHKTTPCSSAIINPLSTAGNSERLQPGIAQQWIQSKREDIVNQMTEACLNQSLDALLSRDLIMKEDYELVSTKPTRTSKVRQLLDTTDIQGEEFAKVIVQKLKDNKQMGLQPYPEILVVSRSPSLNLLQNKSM", "assay": "Inhibition of N-terminal polyHis-tagged human RIPK2 (8 to 310 residues) expressed in Sf9 cells using MBP as substrate preincubated for 15 mins followed by ATP addition measured after 90 mins by ADP-Glo assay"}, "[4]": {"biological_target": "T1, Receptor-interacting serine/threonine-protein kinase 2", "assay": "Inhibition of RIPK2-mediated NF-kappaB signalling in C14-TriLAN-Gly-treated human THP-1 cells preincubated for 30 mins followed by C14-TriLAN-Gly addition measured after 24 hrs by luminescence based assay", "type": "cell-based"}, "[5]": {"biological_target": "T1, Receptor-interacting serine/threonine-protein kinase 2", "assay": "Inhibition of RIPK2-mediated NF-kappaB signalling in MDP-treated human THP-1 cells preincubated for 30 mins followed by MDP addition measured after 24 hrs by luminescence based assay", "type": "cell-based"}, "[6]": {"biological_target": "Tyrosine-protein kinase Lyn (Homo sapiens) (UniProt P07948)", "sequence (P07948 2-512 limits assumed)": "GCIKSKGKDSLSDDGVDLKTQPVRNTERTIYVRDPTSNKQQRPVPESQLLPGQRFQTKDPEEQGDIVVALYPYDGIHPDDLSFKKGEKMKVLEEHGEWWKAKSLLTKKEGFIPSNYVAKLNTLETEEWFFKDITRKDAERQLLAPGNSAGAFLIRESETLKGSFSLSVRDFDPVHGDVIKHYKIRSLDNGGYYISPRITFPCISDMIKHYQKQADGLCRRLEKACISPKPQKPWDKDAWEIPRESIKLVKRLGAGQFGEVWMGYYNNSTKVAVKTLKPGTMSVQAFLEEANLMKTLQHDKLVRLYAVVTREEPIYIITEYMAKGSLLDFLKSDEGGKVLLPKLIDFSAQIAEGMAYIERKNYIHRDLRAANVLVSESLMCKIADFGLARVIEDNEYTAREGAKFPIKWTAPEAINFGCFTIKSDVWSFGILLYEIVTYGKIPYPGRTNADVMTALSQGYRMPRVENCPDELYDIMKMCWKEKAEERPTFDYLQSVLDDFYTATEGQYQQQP", "assay": "Inhibition of human LYN relative to control", "conditions": "concentration not given here"}, "[7]": {"biological_target": "Serine/threonine-protein kinase 10 (Homo sapiens) (UniProt O94804)", "sequence (O94804 whole entry, looked up)": "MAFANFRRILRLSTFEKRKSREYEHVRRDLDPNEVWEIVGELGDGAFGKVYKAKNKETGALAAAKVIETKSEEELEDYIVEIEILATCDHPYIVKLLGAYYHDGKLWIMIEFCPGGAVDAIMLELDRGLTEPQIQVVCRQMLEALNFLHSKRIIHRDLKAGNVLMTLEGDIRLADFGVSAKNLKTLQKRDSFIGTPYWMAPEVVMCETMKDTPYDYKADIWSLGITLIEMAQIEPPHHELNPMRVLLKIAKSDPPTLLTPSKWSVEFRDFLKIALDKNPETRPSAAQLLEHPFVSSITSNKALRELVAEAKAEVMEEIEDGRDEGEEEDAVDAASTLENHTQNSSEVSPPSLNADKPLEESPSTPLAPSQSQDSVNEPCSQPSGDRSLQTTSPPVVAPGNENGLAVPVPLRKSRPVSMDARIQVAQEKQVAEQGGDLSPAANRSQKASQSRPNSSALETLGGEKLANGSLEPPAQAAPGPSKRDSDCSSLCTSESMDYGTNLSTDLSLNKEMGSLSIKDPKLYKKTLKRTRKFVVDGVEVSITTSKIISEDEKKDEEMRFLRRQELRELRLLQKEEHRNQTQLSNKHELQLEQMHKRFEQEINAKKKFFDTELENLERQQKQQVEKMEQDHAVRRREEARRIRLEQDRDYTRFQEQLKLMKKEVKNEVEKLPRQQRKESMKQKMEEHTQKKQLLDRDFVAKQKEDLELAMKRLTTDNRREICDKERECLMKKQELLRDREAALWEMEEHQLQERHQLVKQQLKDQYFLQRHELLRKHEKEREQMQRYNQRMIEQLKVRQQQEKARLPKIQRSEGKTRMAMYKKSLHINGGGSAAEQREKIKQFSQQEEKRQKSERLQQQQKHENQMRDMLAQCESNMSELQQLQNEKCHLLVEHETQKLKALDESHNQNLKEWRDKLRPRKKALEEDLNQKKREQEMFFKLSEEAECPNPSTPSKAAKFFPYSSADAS", "assay": "Inhibition of human LOK relative to control", "conditions": "concentration not given here"}, "[8]": {"biological_target": "Vascular endothelial growth factor receptor 2 (Homo sapiens) (UniProt P35968)", "assay": "Inhibition of human KDR relative to control", "set-up": "concentration or dose not given beside the values", "conditions": "concentration not given here"}, "[9]": {"assay": "Metabolic stability in human liver microsomes assessed as compound remaining at 10 uM incubated for 45 mins by ECHO-MS analysis", "type": "ADME, Microsome", "conditions": "microsomes, 0.75 h, 10 µM"}, "[10]": {"assay": "Metabolic stability in human plasma assessed as compound remaining at 5 uM incubated for 120 mins by ECHO-MS analysis", "type": "ADME, cell-free", "conditions": "read-out: Stability"}, "[11]": {"assay": "Metabolic stability in mouse plasma assessed as compound remaining at 5 uM incubated for 120 mins by ECHO-MS analysis", "type": "ADME, cell-free", "conditions": "read-out: Stability"}, "[12]": {"biological_target": "Epidermal growth factor receptor (Homo sapiens) (UniProt P00533)", "sequence (P00533 whole entry)": "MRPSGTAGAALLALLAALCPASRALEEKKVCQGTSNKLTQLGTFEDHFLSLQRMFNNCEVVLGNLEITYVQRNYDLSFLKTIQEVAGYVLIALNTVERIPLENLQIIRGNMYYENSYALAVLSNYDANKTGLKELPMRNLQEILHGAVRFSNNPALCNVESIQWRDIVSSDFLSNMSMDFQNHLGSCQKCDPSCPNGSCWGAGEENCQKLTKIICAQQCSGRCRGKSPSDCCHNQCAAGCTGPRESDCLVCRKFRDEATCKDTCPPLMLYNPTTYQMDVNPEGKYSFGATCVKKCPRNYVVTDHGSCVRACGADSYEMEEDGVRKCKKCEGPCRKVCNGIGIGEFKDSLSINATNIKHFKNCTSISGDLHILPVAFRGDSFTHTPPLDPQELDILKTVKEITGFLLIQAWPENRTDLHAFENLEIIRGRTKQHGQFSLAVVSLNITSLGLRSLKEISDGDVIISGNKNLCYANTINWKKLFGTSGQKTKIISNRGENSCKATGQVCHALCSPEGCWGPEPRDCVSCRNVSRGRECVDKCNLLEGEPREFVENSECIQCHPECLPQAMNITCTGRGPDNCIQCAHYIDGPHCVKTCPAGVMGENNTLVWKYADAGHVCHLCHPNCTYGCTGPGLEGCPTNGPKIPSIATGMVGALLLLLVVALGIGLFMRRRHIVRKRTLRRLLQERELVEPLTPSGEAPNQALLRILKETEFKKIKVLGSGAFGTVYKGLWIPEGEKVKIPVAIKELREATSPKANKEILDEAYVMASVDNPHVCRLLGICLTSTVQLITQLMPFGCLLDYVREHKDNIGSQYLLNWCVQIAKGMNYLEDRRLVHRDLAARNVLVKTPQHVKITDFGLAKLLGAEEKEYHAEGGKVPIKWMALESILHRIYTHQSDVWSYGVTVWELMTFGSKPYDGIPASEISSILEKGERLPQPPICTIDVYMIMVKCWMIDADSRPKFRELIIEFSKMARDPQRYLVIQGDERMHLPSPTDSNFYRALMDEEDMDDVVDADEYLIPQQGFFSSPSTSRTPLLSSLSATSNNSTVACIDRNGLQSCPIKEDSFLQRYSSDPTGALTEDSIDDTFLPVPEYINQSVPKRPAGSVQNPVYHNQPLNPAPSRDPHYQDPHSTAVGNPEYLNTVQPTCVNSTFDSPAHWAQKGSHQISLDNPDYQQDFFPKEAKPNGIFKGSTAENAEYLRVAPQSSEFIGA", "assay": "Inhibition of human EGFR relative to control", "conditions": "concentration not given here"}, "[13]": {"biological_target": "T2, Receptor-interacting serine/threonine-protein kinase 1 (Homo sapiens, UniProt Q13546)", "T2 sequence (Q13546 whole entry)": "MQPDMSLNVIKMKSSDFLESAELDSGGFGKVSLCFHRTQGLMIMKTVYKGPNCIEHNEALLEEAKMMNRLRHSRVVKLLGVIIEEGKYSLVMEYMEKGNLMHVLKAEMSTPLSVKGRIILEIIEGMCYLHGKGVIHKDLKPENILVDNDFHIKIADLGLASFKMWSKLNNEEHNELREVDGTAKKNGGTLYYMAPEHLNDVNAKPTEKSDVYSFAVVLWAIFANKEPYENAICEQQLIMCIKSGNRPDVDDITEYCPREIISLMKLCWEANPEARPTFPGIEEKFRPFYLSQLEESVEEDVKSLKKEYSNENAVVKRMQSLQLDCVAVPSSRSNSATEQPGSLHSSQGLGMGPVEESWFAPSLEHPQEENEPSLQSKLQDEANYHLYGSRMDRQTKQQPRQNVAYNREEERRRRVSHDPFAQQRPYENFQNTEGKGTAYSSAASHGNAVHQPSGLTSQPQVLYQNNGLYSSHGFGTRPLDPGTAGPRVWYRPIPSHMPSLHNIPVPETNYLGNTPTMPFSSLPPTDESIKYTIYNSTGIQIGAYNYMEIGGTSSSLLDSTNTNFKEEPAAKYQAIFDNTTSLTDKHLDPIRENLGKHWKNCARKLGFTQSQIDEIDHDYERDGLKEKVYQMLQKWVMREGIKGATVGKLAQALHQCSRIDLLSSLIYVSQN", "assay": "Inhibition of N-terminal polyHis-tagged human RIPK1 (1 to 321 residues) expressed in Sf9 cells using MBP as substrate preincubated for 15 mins followed by ATP addition measured after 90 mins by ADP-Glo assay"}, "[14]": {"assay": "Metabolic stability in mouse liver microsomes assessed as compound remaining at 10 uM incubated for 45 mins by ECHO-MS analysis", "type": "ADME, Microsome", "conditions": "read-out: Stability"}, "[15]": {"biological_target": "Receptor-interacting serine/threonine-protein kinase 3 (Homo sapiens, UniProt Q9Y572)", "sequence (Q9Y572 whole entry, the tested form may be a part)": "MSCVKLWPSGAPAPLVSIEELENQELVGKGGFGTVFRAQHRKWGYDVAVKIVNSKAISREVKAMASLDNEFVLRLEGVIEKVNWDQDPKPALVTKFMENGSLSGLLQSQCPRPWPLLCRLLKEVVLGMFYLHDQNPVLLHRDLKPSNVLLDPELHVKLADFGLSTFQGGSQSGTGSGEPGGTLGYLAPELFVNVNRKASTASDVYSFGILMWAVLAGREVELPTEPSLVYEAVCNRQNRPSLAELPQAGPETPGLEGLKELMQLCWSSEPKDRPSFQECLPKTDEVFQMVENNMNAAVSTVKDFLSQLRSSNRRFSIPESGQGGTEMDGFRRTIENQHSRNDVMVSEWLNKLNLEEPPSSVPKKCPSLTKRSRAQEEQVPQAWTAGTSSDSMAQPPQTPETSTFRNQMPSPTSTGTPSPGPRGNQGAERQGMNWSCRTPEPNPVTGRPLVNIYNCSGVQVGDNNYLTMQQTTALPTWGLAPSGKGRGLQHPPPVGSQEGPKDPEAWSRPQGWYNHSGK", "assay": "Inhibition of N-terminal polyHis-tagged human RIPK3 (1 to 307 residues) expressed in Sf9 cells using MBP as substrate preincubated for 15 mins followed by ATP addition measured after 90 mins by ADP-Glo assay"}, "[16]": {"biological_target": "T3, Receptor-interacting serine/threonine-protein kinase 4 (Homo sapiens, UniProt P57078)", "T3 sequence (P57078 whole entry)": "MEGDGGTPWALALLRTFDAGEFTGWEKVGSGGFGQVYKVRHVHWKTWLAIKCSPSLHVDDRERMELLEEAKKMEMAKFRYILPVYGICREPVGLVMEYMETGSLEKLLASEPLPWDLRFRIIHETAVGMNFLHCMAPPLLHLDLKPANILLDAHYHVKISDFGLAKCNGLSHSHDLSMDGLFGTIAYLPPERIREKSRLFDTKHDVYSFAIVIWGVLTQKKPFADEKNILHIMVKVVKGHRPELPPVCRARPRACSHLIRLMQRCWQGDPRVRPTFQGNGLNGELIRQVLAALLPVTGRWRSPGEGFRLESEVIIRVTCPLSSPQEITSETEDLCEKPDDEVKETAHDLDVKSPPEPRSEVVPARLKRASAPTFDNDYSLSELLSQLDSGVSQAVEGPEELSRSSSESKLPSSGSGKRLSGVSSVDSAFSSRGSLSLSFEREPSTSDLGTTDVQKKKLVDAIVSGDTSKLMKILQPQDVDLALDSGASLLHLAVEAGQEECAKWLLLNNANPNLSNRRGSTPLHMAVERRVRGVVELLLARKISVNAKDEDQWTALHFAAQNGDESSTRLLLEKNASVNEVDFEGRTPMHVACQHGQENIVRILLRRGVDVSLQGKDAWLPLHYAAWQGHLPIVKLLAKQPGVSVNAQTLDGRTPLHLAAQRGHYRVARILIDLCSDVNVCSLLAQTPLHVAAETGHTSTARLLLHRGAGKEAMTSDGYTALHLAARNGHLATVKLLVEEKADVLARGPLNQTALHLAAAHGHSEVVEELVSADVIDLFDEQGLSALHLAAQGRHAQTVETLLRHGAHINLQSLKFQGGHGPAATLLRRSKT", "assay": "Inhibition of N-terminal polyHis-tagged human RIPK4 (1 to 321 residues) expressed in Sf9 cells using MBP as substrate preincubated for 15 mins followed by ATP addition measured after 90 mins by ADP-Glo assay"}}, "data": [{"smiles": "OCc1ccc(-c2cc3ncnc(Nc4ccc5scnc5c4)c3cc2-c2cccs2)o1", "values": [{"measurement": "inhibition", "setting": "[1]", "result": 94, "unit": "%"}, {"measurement": "inhibition", "setting": "[2]", "result": 70, "unit": "%"}, {"measurement": "IC50", "setting": "[3]", "result": 3, "unit": "nM"}, {"measurement": "IC50", "setting": "[4]", "result": 14, "unit": "nM"}, {"measurement": "IC50", "setting": "[5]", "result": 27, "unit": "nM"}, {"measurement": "inhibition", "setting": "[6]", "result": 94, "unit": "%"}, {"measurement": "inhibition", "setting": "[7]", "result": 83, "unit": "%"}, {"measurement": "inhibition", "setting": "[8]", "result": 94, "unit": "%"}, {"measurement": "Stability", "setting": "[9]", "result": 124, "unit": "%"}, {"measurement": "remaining at 2 h, 5 µM", "setting": "[10]", "result": 108, "unit": "%"}, {"measurement": "remaining at 2 h, 5 µM", "setting": "[11]", "result": 107, "unit": "%"}, {"measurement": "inhibition", "setting": "[12]", "result": 79, "unit": "%"}, {"measurement": "IC50", "setting": "[13]", "result": "> 50000", "unit": "nM"}, {"measurement": "remaining at 0.75 h, 10 µM", "setting": "[14]", "result": 114, "unit": "%"}, {"measurement": "IC50", "setting": "[15]", "result": 117, "unit": "nM"}, {"measurement": "IC50", "setting": "[16]", "result": "> 50000", "unit": "nM"}]}]}
